# Source: PubChem BioAssay (NCI)
#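 Growth conditions: 96-well plates. Treatment: test compound, 48 hours, 5 concentrations. Analysis: linear interpolation between bracketing concentrations; unreached endpoints set to highest concentration. GI50 = concentration required for 50% inhibition of growth. The concentration for full growth arrest is given as TGI.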
# Columns and labels:
# Assay in all cases: inhibition of tumour cell growth, NCI panel, 48 h
# M14 melanoma = test system: M14 melanoma
# NCI-H460 lung = test system: NCI-H460 lung
# CCRF-CEM leukemia = test system: CCRF-CEM leukemia
# TK-10 renal = test system: TK-10 renal
# COLO 205 colon = test system: COLO 205 colon
# OVCAR-5 ovarian = test system: OVCAR-5 ovarian
# A498 renal = test system: A498 renal
# HOP-62 NSCLC = test system: HOP-62 NSCLC
# 786-0 renal = test system: 786-0 renal
# SF-268 CNS = test system: SF-268 CNS
# MCF7 breast = test system: MCF7 breast
# SK-MEL-2 melanoma = test system: SK-MEL-2 melanoma
# KM12 colon = test system: KM12 colon
# MDA-MB-231 breast = test system: MDA-MB-231 breast
# CAKI-1 renal = test system: CAKI-1 renal
# SK-MEL-28 melanoma = test system: SK-MEL-28 melanoma
# SK-OV-3 ovarian = test system: SK-OV-3 ovarian
# UACC-257 melanoma = test system: UACC-257 melanoma
# MOLT-4 leukemia = test system: MOLT-4 leukemia
# RPMI-8226 leukemia = test system: RPMI-8226 leukemia
# EKVX NSCLC = test system: EKVX NSCLC
# T-47D breast = test system: T-47D breast
# NCI-H23 lung = test system: NCI-H23 lung
# HCC-2998 colon = test system: HCC-2998 colon
# BT-549 breast = test system: BT-549 breast
# OVCAR-3 ovarian = test system: OVCAR-3 ovarian
# DU-145 prostate = test system: DU-145 prostate
# RXF 393 renal = test system: RXF 393 renal
# SNB-19 CNS = test system: SNB-19 CNS
# LOX IMVI melanoma = test system: LOX IMVI melanoma
# HCT-116 colon = test system: HCT-116 colon
# U251 CNS = test system: U251 CNS
# UACC-62 melanoma = test system: UACC-62 melanoma
# UO-31 renal = test system: UO-31 renal
# SF-295 CNS = test system: SF-295 CNS
# SK-MEL-5 melanoma = test system: SK-MEL-5 melanoma
# NCI-H226 lung = test system: NCI-H226 lung
# HOP-92 NSCLC = test system: HOP-92 NSCLC
# OVCAR-4 ovarian = test system: OVCAR-4 ovarian
# NCI/ADR-RES ovarian = test system: NCI/ADR-RES ovarian
# MDA-MB-435 = test system: MDA-MB-435
# A549 NSCLC = test system: A549 NSCLC
# K-562 leukemia = test system: K-562 leukemia
# PC-3 prostate = test system: PC-3 prostate
# SW-620 colon = test system: SW-620 colon
# SNB-75 CNS = test system: SNB-75 CNS
# ACHN renal = test system: ACHN renal
# HCT-15 colon = test system: HCT-15 colon
# NCI-H522 lung = test system: NCI-H522 lung
# MALME-3M melanoma = test system: MALME-3M melanoma
# SF-539 CNS = test system: SF-539 CNS
# HL-60(TB) leukemia = test system: HL-60(TB) leukemia
# HS 578T breast = test system: HS 578T breast
# SN12C renal = test system: SN12C renal
# IGROV1 ovarian = test system: IGROV1 ovarian
# HT29 colon = test system: HT29 colon
# OVCAR-8 ovarian = test system: OVCAR-8 ovarian
structure (smiles),measurement,setting,value
CN1C(=O)C(=Cc2ccc(Br)cc2)C(=O)N(C)C1=O,TGI,M14 melanoma,> 100 µM
same,TGI,NCI-H460 lung,> 100 µM
same,TGI,CCRF-CEM leukemia,> 100 µM
same,TGI,TK-10 renal,> 100 µM
same,TGI,COLO 205 colon,> 100 µM
same,TGI,OVCAR-5 ovarian,> 100 µM
same,TGI,A498 renal,> 100 µM
same,TGI,HOP-62 NSCLC,> 100 µM
same,TGI,786-0 renal,> 100 µM
same,TGI,SF-268 CNS,> 100 µM
same,TGI,MCF7 breast,> 100 µM
same,TGI,SK-MEL-2 melanoma,> 100 µM
same,TGI,KM12 colon,> 100 µM
same,TGI,MDA-MB-231 breast,> 100 µM
same,TGI,CAKI-1 renal,> 100 µM
same,TGI,SK-MEL-28 melanoma,> 100 µM
same,TGI,SK-OV-3 ovarian,> 100 µM
same,TGI,UACC-257 melanoma,> 100 µM
same,TGI,MOLT-4 leukemia,> 100 µM
same,TGI,RPMI-8226 leukemia,> 100 µM
same,TGI,EKVX NSCLC,> 100 µM
same,TGI,T-47D breast,> 100 µM
same,TGI,NCI-H23 lung,> 100 µM
same,TGI,HCC-2998 colon,> 100 µM
same,TGI,BT-549 breast,> 100 µM
same,TGI,OVCAR-3 ovarian,> 100 µM
same,TGI,DU-145 prostate,> 100 µM
same,TGI,RXF 393 renal,> 100 µM
same,TGI,SNB-19 CNS,> 100 µM
same,TGI,LOX IMVI melanoma,> 100 µM
same,TGI,HCT-116 colon,> 100 µM
same,TGI,U251 CNS,> 100 µM
same,TGI,UACC-62 melanoma,> 100 µM
same,TGI,UO-31 renal,> 100 µM
same,TGI,SF-295 CNS,> 100 µM
same,TGI,SK-MEL-5 melanoma,> 100 µM
same,TGI,NCI-H226 lung,> 100 µM
same,TGI,HOP-92 NSCLC,> 100 µM
same,TGI,OVCAR-4 ovarian,> 100 µM
same,TGI,NCI/ADR-RES ovarian,> 100 µM
same,TGI,MDA-MB-435,> 100 µM
same,TGI,A549 NSCLC,> 100 µM
same,TGI,K-562 leukemia,> 100 µM
same,TGI,PC-3 prostate,> 100 µM
same,TGI,SW-620 colon,> 100 µM
same,TGI,SNB-75 CNS,> 100 µM
same,TGI,ACHN renal,> 100 µM
same,TGI,HCT-15 colon,> 100 µM
COc1ccc(-c2cc(=O)c3c(OC)c4ccoc4c(/C=C/C=O)c3o2)cc1,GI50,M14 melanoma,2.24 µM
same,TGI,M14 melanoma,7.56 µM
same,GI50,NCI-H460 lung,4.7 µM
same,TGI,NCI-H460 lung,39.4 µM
same,GI50,CCRF-CEM leukemia,1.09 µM
same,TGI,CCRF-CEM leukemia,> 100 µM
same,GI50,COLO 205 colon,27.5 µM
same,TGI,COLO 205 colon,80.4 µM
same,GI50,OVCAR-5 ovarian,11.7 µM
same,TGI,OVCAR-5 ovarian,46.8 µM
same,GI50,A498 renal,17.2 µM
same,TGI,A498 renal,71.9 µM
same,GI50,HOP-62 NSCLC,2.98 µM
same,TGI,HOP-62 NSCLC,11.1 µM
same,GI50,786-0 renal,16.8 µM
same,TGI,786-0 renal,72.5 µM
same,GI50,SF-268 CNS,4.38 µM
same,TGI,SF-268 CNS,87.2 µM
same,GI50,MCF7 breast,1.63 µM
same,TGI,MCF7 breast,> 100 µM
same,GI50,SK-MEL-2 melanoma,9.06 µM
same,TGI,SK-MEL-2 melanoma,84.6 µM
same,GI50,KM12 colon,12.3 µM
same,TGI,KM12 colon,25.7 µM
same,GI50,MDA-MB-231 breast,4.22 µM
same,TGI,MDA-MB-231 breast,85.3 µM
same,GI50,CAKI-1 renal,5.03 µM
same,TGI,CAKI-1 renal,> 100 µM
same,GI50,SK-MEL-28 melanoma,2.52 µM
same,TGI,SK-MEL-28 melanoma,7.1 µM
same,GI50,SK-OV-3 ovarian,4.73 µM
same,TGI,SK-OV-3 ovarian,23 µM
same,GI50,UACC-257 melanoma,3.63 µM
same,TGI,UACC-257 melanoma,14.2 µM
same,GI50,MOLT-4 leukemia,1.84 µM
same,TGI,MOLT-4 leukemia,5.97 µM
same,GI50,NCI-H522 lung,34.6 µM
same,TGI,NCI-H522 lung,> 100 µM
same,GI50,RPMI-8226 leukemia,1.37 µM
same,TGI,RPMI-8226 leukemia,5.29 µM
same,GI50,T-47D breast,2.03 µM
same,TGI,T-47D breast,> 100 µM
same,GI50,NCI-H23 lung,2.8 µM
same,TGI,NCI-H23 lung,13 µM
same,GI50,HCC-2998 colon,13.7 µM
same,TGI,HCC-2998 colon,27.8 µM
same,GI50,BT-549 breast,2.14 µM
same,TGI,BT-549 breast,7.15 µM
same,GI50,OVCAR-3 ovarian,3.92 µM
same,TGI,OVCAR-3 ovarian,25.3 µM
same,GI50,DU-145 prostate,4.53 µM
same,TGI,DU-145 prostate,18.9 µM
same,GI50,RXF 393 renal,2.15 µM
same,TGI,RXF 393 renal,4.49 µM
same,GI50,SNB-19 CNS,3.16 µM
same,TGI,SNB-19 CNS,46.6 µM
same,GI50,LOX IMVI melanoma,1.08 µM
same,TGI,LOX IMVI melanoma,2.34 µM
same,GI50,MALME-3M melanoma,3.79 µM
same,TGI,MALME-3M melanoma,8.3 µM
same,GI50,HCT-116 colon,1.06 µM
same,TGI,HCT-116 colon,3.43 µM
same,GI50,U251 CNS,2.53 µM
same,TGI,U251 CNS,10.3 µM
same,GI50,UACC-62 melanoma,1.77 µM
same,TGI,UACC-62 melanoma,5.11 µM
same,GI50,UO-31 renal,3.17 µM
same,TGI,UO-31 renal,19.5 µM
same,GI50,SF-539 CNS,4.14 µM
same,TGI,SF-539 CNS,19.6 µM
same,GI50,SF-295 CNS,3.4 µM
same,TGI,SF-295 CNS,26.5 µM
same,GI50,SK-MEL-5 melanoma,1.69 µM
same,TGI,SK-MEL-5 melanoma,3.51 µM
same,GI50,HL-60(TB) leukemia,2.72 µM
same,TGI,HL-60(TB) leukemia,8.33 µM
same,GI50,NCI-H226 lung,2.93 µM
same,TGI,NCI-H226 lung,8.89 µM
same,GI50,HOP-92 NSCLC,16.8 µM
same,TGI,HOP-92 NSCLC,98.7 µM
same,GI50,OVCAR-4 ovarian,3.8 µM
same,TGI,OVCAR-4 ovarian,> 100 µM
same,GI50,NCI/ADR-RES ovarian,2.84 µM
same,TGI,NCI/ADR-RES ovarian,48 µM
same,GI50,HS 578T breast,10.4 µM
same,TGI,HS 578T breast,> 100 µM
same,GI50,SN12C renal,2.32 µM
same,TGI,SN12C renal,59.5 µM
same,GI50,MDA-MB-435,2.81 µM
same,TGI,MDA-MB-435,32.3 µM
same,GI50,A549 NSCLC,18.5 µM
same,TGI,A549 NSCLC,72.4 µM
same,GI50,K-562 leukemia,2.8 µM
same,TGI,K-562 leukemia,> 100 µM
same,GI50,PC-3 prostate,2.58 µM
same,TGI,PC-3 prostate,16.5 µM
same,GI50,IGROV1 ovarian,13.6 µM
same,TGI,IGROV1 ovarian,> 100 µM
same,GI50,SW-620 colon,2.3 µM
same,TGI,SW-620 colon,10.4 µM
same,GI50,SNB-75 CNS,3.13 µM
same,TGI,SNB-75 CNS,20.6 µM
same,GI50,ACHN renal,19.3 µM
same,TGI,ACHN renal,> 100 µM
same,GI50,HT29 colon,18.1 µM
same,TGI,HT29 colon,> 100 µM
same,GI50,OVCAR-8 ovarian,2.83 µM
same,TGI,OVCAR-8 ovarian,27.3 µM
same,GI50,HCT-15 colon,1.73 µM
same,TGI,HCT-15 colon,5.92 µM
